From US12325706B2, “Polymorphic form of sepiapterin” (PTC Therapeutics MP, Inc., priority 2016, dated 2025)
Blank lines part the entries; values can stand above or below the compound they belong to.

How the values were obtained:
[1] = Storage stability of sepiapterin polymorph forms, form change by XRD; type: physicochemical
Experimental: (§1) Form A and F samples were placed in chambers with silica gel to remove water (the relative humidity was measured to be ˜10% RH) at different temperatures. Form D samples were placed in chambers with water (relative humidity was estimated to be ˜100% RH) at different temperatures.
(§2) The HPLC purities and XRD patterns were obtained for each of Form A/F/D samples stored at various temperatures.

[2] = Storage stability of sepiapterin polymorph forms, HPLC purity; type: physicochemical; parameters: Impurity RRT 1.06 (HPLC) / Impurity RRT 1.08 (HPLC) / Impurity RRT 1.17 (HPLC) / Impurity RRT 1.21 (HPLC) / Impurity RRT 1.25 (HPLC) / Impurity RRT 0.62 (HPLC) / Impurity RRT 0.89 (HPLC) / Impurity RRT 0.95 (HPLC) / Impurity RRT 0.60 (HPLC): unit not given here; settings: for Purity of initial samples by HPLC: before storage; for Stability on storage as determined by HPLC, comparison of forms in words: storage up to 4 weeks at RT
Experimental: as §1, §2
Samples of sepiapterin free base polymorph Forms D, F, and A were stored at room temperature (RT), 35° C., and 50° C. The samples were analyzed by HPLC at 1 week and 4 week intervals.

[3] = storage 4 weeks, 35° C., 10% RH
[4] = storage 4 weeks, 50° C., 10% RH
[5] = 35° C./10% RH, 1 w, listed as Polymorph F
[6] = 35° C./10% RH, 4 w, listed as Polymorph F
[7] = 50° C./10% RH, 1 w, listed as Polymorph F
[8] = 50° C./10% RH, 4 w, listed as Polymorph F
[9] = RT/10% RH, 1 w, listed as Polymorph F
[10] = RT/10% RH, 4 w, listed as Polymorph F
[11] = storage 1 week, 35° C., 100% RH
[12] = storage 1 week, 50° C., 100% RH
[13] = storage 4 weeks, 35° C., 100% RH
[14] = storage 4 weeks, 50° C., 100% RH

Form change ([1]; storage 1 week, 35° C., 10% RH): No
Form change ([1]; storage 1 week, 50° C., 10% RH): No
Form change ([1]; storage 1 week, RT, 10% RH): No
Form change [1, 3]: No
Form change [1, 4]: No
Form change ([1]; storage 4 weeks, RT, 10% RH): No
Impurity RRT 0.60 (HPLC) ([2]; 35° C./10% RH, 1 w): <0.05
Impurity RRT 0.95 (HPLC) [2, 5]: 0.35
Impurity RRT 1.08 (HPLC) [2, 5]: 0.06
Impurity RRT 1.17 (HPLC) [2, 5]: 0.15
Sepiapterin RRT 1.00 (HPLC), amount of sepiapterin [2, 5]: 99.43%
Impurity RRT 0.60 (HPLC) ([2]; 35° C./10% RH, 4 w): <0.05
Impurity RRT 1.08 (HPLC) ([2]; 35° C./10% RH, 4 w): <0.05
Impurity RRT 0.95 (HPLC) [2, 6]: 0.42
Impurity RRT 1.17 (HPLC) [2, 6]: 0.15
Sepiapterin RRT 1.00 (HPLC), amount of sepiapterin [2, 6]: 99.43%
Impurity RRT 0.60 (HPLC) ([2]; 50° C./10% RH, 1 w): <0.05
Impurity RRT 0.95 (HPLC) [2, 7]: 0.58
Impurity RRT 1.08 (HPLC) [2, 7]: 0.11
Impurity RRT 1.17 (HPLC) [2, 7]: 0.15
Sepiapterin RRT 1.00 (HPLC), amount of sepiapterin [2, 7]: 99.15%
Impurity RRT 0.60 (HPLC) ([2]; 50° C./10% RH, 4 w): 0.12
Impurity RRT 1.17 (HPLC) ([2]; 50° C./10% RH, 4 w): 0.17
Impurity RRT 0.95 (HPLC) [2, 8]: 0.86
Impurity RRT 1.08 (HPLC) [2, 8]: <0.05
Sepiapterin RRT 1.00 (HPLC), amount of sepiapterin [2, 8]: 98.85%
Sepiapterin RRT 1.00 (HPLC), amount of sepiapterin ([2]; 50° C./10% RH, 4 w, listed as polymorph F): 98.85%
Impurity RRT 0.60 (HPLC) ([2]; Initial): <0.05
Impurity RRT 1.08 (HPLC) ([2]; Initial): <0.05
Impurity RRT 1.17 (HPLC) ([2]; Initial): 0.17
Impurity RRT 0.95 (HPLC) ([2]; Initial, listed as Polymorph F): 0.09
Sepiapterin RRT 1.00 (HPLC), amount of sepiapterin ([2]; Initial, listed as Polymorph F): 99.74%
Sepiapterin RRT 1.00 (HPLC), amount of sepiapterin ([2]; Initial, listed as polymorph F): 99.74%
Impurity RRT 0.60 (HPLC) ([2]; RT/10% RH, 1 w): <0.05
Impurity RRT 1.17 (HPLC) ([2]; RT/10% RH, 1 w): 0.16
Impurity RRT 0.95 (HPLC) [2, 9]: 0.29
Impurity RRT 1.08 (HPLC) [2, 9]: 0.14
Sepiapterin RRT 1.00 (HPLC), amount of sepiapterin [2, 9]: 99.42%
Impurity RRT 0.60 (HPLC) ([2]; RT/10% RH, 4 w): <0.05
Impurity RRT 1.08 (HPLC) ([2]; RT/10% RH, 4 w): <0.05
Impurity RRT 1.17 (HPLC) ([2]; RT/10% RH, 4 w): 0.16
Impurity RRT 0.95 (HPLC) [2, 10]: 0.30
Sepiapterin RRT 1.00 (HPLC), amount of sepiapterin [2, 10]: 99.54%
Purity of initial samples by HPLC [2]: 99.7 area %
% of Initial ([2]; storage 1 week, 35° C., 10% RH): 99.7%
Purity (area %) ([2]; storage 1 week, 35° C., 10% RH): 99.4 area %
% of Initial ([2]; storage 1 week, 50° C., 10% RH): 99.4%
Purity (area %) ([2]; storage 1 week, 50° C., 10% RH): 99.2 area %
% of Initial ([2]; storage 1 week, RT, 10% RH): 99.7%
Purity (area %) ([2]; storage 1 week, RT, 10% RH): 99.4 area %
% of Initial [2, 3]: 99.7%
Purity (area %) [2, 3]: 99.4 area %
% of Initial [2, 4]: 99.1%
Purity (area %) [2, 4]: 98.9 area %
% of Initial ([2]; storage 4 weeks, RT, 10% RH): 99.8%
Purity (area %) ([2]; storage 4 weeks, RT, 10% RH): 99.5 area %
Structure (SMILES): C[C@H](O)C(=O)C1=Nc2c(nc(N)[nH]c2=O)NC1 [Form F, sepiapterin]
Stability on storage as determined by HPLC, comparison of forms in words ([2]; 35° C., 50° C., listed as polymorph F): significantly greater stability than polymorph A

Form change [1, 11]: No
Form change [1, 12]: No
Form change ([1]; storage 1 week, RT, 100% RH): No
Form change [1, 13]: No
Form change [1, 14]: No
Form change ([1]; storage 4 weeks, RT, 100% RH): No
Impurity RRT 0.62 (HPLC) ([2]; 35° C./100% RH, 1 w): <0.05
Impurity RRT 0.95 (HPLC) ([2]; 35° C./100% RH, 1 w): 0.86
Impurity RRT 1.08 (HPLC) ([2]; 35° C./100% RH, 1 w): 0.14
Impurity RRT 1.17 (HPLC) ([2]; 35° C./100% RH, 1 w): 0.17
Sepiapterin RRT 1.00 (HPLC), amount of sepiapterin ([2]; 35° C./100% RH, 1 w): 98.83%
Impurity RRT 0.62 (HPLC) ([2]; 35° C./100% RH, 4 w): 0.09
Impurity RRT 0.95 (HPLC) ([2]; 35° C./100% RH, 4 w): 1.04
Impurity RRT 1.08 (HPLC) ([2]; 35° C./100% RH, 4 w): <0.05
Impurity RRT 1.17 (HPLC) ([2]; 35° C./100% RH, 4 w): 0.17
Sepiapterin RRT 1.00 (HPLC), amount of sepiapterin ([2]; 35° C./100% RH, 4 w): 98.70%
Impurity RRT 0.62 (HPLC) ([2]; 50° C./100% RH, 1 w): 0.08
Impurity RRT 0.95 (HPLC) ([2]; 50° C./100% RH, 1 w): 1.05
Impurity RRT 1.08 (HPLC) ([2]; 50° C./100% RH, 1 w): 0.26
Impurity RRT 1.17 (HPLC) ([2]; 50° C./100% RH, 1 w): 0.16
Sepiapterin RRT 1.00 (HPLC), amount of sepiapterin ([2]; 50° C./100% RH, 1 w): 98.45%
Impurity RRT 0.62 (HPLC) ([2]; 50° C./100% RH, 4 w): 0.14
Impurity RRT 0.95 (HPLC) ([2]; 50° C./100% RH, 4 w): 2.03
Impurity RRT 1.08 (HPLC) ([2]; 50° C./100% RH, 4 w): <0.05
Impurity RRT 1.17 (HPLC) ([2]; 50° C./100% RH, 4 w): 0.18
Sepiapterin RRT 1.00 (HPLC), amount of sepiapterin ([2]; 50° C./100% RH, 4 w): 97.65%
Impurity RRT 1.08 (HPLC) ([2]; Initial): <0.05
Impurity RRT 1.17 (HPLC) ([2]; Initial): 0.17
Impurity RRT 0.62 (HPLC) ([2]; Initial, listed as Polymorph D): <0.05
Impurity RRT 0.95 (HPLC) ([2]; Initial, listed as Polymorph D): 0.69
Sepiapterin RRT 1.00 (HPLC), amount of sepiapterin ([2]; Initial, listed as Polymorph D): 99.14%
Sepiapterin RRT 1.00 (HPLC), amount of sepiapterin ([2]; Initial, listed as polymorph D): 99.14%
Impurity RRT 0.62 (HPLC) ([2]; RT/100% RH, 1 w): <0.05
Impurity RRT 0.95 (HPLC) ([2]; RT/100% RH, 1 w): 0.83
Impurity RRT 1.08 (HPLC) ([2]; RT/100% RH, 1 w): <0.05
Impurity RRT 1.17 (HPLC) ([2]; RT/100% RH, 1 w): 0.16
Sepiapterin RRT 1.00 (HPLC), amount of sepiapterin ([2]; RT/100% RH, 1 w): 99.01%
Impurity RRT 0.62 (HPLC) ([2]; RT/100% RH, 4 w): 0.09
Impurity RRT 0.95 (HPLC) ([2]; RT/100% RH, 4 w): 0.81
Impurity RRT 1.08 (HPLC) ([2]; RT/100% RH, 4 w): <0.05
Impurity RRT 1.17 (HPLC) ([2]; RT/100% RH, 4 w): 0.17
Sepiapterin RRT 1.00 (HPLC), amount of sepiapterin ([2]; RT/100% RH, 4 w): 98.92%
Purity of initial samples by HPLC [2]: 99.1 area %
% of Initial [2, 11]: 99.7%
Purity (area %) [2, 11]: 98.8 area %
% of Initial [2, 12]: 99.3%
Purity (area %) [2, 12]: 98.5 area %
% of Initial ([2]; storage 1 week, RT, 100% RH): 99.9%
Purity (area %) ([2]; storage 1 week, RT, 100% RH): 99.0 area %
% of Initial [2, 13]: 99.6%
Purity (area %) [2, 13]: 98.7 area %
% of Initial [2, 14]: 98.5%
Purity (area %) [2, 14]: 97.7 area %
% of Initial ([2]; storage 4 weeks, RT, 100% RH): 99.8%
Purity (area %) ([2]; storage 4 weeks, RT, 100% RH): 98.9 area %
Structure (SMILES): C[C@H](O)C(=O)C1=Nc2c(nc(N)[nH]c2=O)NC1 [Form D, sepiapterin]
Stability on storage as determined by HPLC, comparison of forms in words ([2]; 35° C., 50° C., listed as polymorph D): significantly greater stability than polymorph A
